Results from US20160279135A1, “THERAPIES FOR TREATING MYELOPROLIFERATIVE DISORDERS” (Gilead Sciences, Inc., priority 2013, published 2016).
Where “and” joins values, the source holds several entries; their conditions need not be identical. Equal values may be shown once. Read-outs that look alike come from different tables or passages of the source.

Columns and labels:
[1] = test system: Pfeiffer cells; assay: CellTiter-Glo cell viability of Pfeiffer cells with IL6; assay type: cell-based; settings: Homo sapiens, 96 h, n=4, read-out: percentage of viable Pfeiffer cells, AVG; for viability at […]: 74 nM Compound B; for viability at 0.2 µM: 200 nM Compound B; for viability at 0.421 µM: 421 nM Compound B
Experimental: Next, Pfeiffer cells were treated with IL6 (0 or 3 ng/mL), Compound A (0, 136, 272, or 695 nM), and/or Compound B (0, 74, 200, or 421 nM) (n=4 per group) for 96 hours.
Cellular viability was determined using the CellTiter-Glo Luminescent Cell Viability Assay (Promega). The percentage of viable cells was normalized to the groups that were not treated with Compound A or Compound B, and standard deviation was calculated.

[2] = test system: p-AKT Ser473; assay: flow cytometry of AKT phosphorylation in CD34+ progenitor cells from MF patients; assay type: cell-based, human; settings: 2.0 μM
Experimental: In this example, PBMCs were isolated from whole blood of myelofibrosis (MF) patients who had not received treatments (i.e. naïve patients) or received ruxolitinib (i.e. rux-treated patients). The cells were treated with 0.02, 0.2, or 2.0 μM of Compound B or vehicle (0.1% DMSO in 0.1% FBS/RPMI) for 2 hours at 37° C. The cells were then fixed, permeabilized, and stained for FACS analysis. Antibodies specific to p-AKT Ser473 and pS6RP Ser235/236 were used to detect AKT phosphorylation (p-AKT) and S6RP phosphorylation (p-S6RP) in CD34^+/CD3^−/CD14^−/CD19/CD66^− (BD Biosciences) gated cells using flow cytometry. The percentage of basal (i.e. untreated with TPO) AKT and S6RP phosphorylation were normalized to vehicle control (i.e. “no TPO” values shown in Table 2). A two-tailed paired t-test (GraphPad Prism) was used to calculate p-values. Values of p<0.05 were considered significant.
Also, PBMC cells were treated with Compound B and with TPO as described above. The percentage of TPO-activated AKT and S6RP phosphorylation were normalized to those of TPO-treated vehicle. […] Also, the inhibition to PI3K signaling was dose-dependent to Compound B.
Similar studies were conducted with PI3K inhibitors Compounds C and D. PBMC from MF patients had received ruxolitinib (rux) and MF patient had received Compound A. The cells were treated with Compounds C or D at 0, 20.0, 200.0, 2000.0 nM for 2 hours at 37° C. Cells were treated with TPO for 10 minutes. The percentage of basal p-AKT and p-S6RP levels were normalized to vehicle control and those of TPO-treated were normalized to TPO-treated vehicle control. The PI3K inhibitors Compounds C and D had the chemical names of (S)-2-(1-((9H-purin-6-yl)amino)ethyl)-6-fluoro-3-phenylquinazolin-4(3H)-one and (S)-2,4-diamino-6-(((5-chloro-8-fluoro-4-oxo-3-(pyridine-3-yl)-3,4-dihydroquinazolin-2-yl)(cyclopropyl)methyl)amino)pyrimidine-5-carbonitrile, respectively.

[3] = test system: pS6 Ser235/236; assay: Western blot of S6 phosphorylation in BaF3/MPL cells; assay type: cell-based; settings: 2 h, then TPO 50 ng/mL 10 min, vs vehicle
Experimental: In addition, Compound B was examined for the effects on the PI3K signaling pathway by determining the levels of AKT and S6 phosphorylation with or without TPO activation. Two cell lines, BaF3/MPL and UT-7/TPO sensitive or responsive to TPO activation were used. The cells were starved (i.e. growing on medium having less FBS) in […] FBS/RPMI for two hours before treated with 0.1, 1.0, or 2.0 μM of Compound B or vehicle (0.1% DMSO in RPMI) for 2 hours at 37° C. To examine the TPO-activated phosphorylation, the cells were then treated or activated with 50 ng/mL of human recombinant TPO (Peprotech) for 10 minutes at 37° C. The TPO activation or treatment may reflect the conditions in diseased cells as the PI3K pathway is activated by TPO in myelofibrosis. After treating with compound and/or TPO, the cells were collected, lysed by lysis buffer (Cell Signaling), separated by SDS-PAGE, and analyzed by the Western blot using antibodies specific to p-AKT Ser473 or pS6 Ser235/236 (Cell Signaling). The phosphorylation levels in treated cells were calculated and compared to those of untreated cells (i.e. vehicle as negative control).

[4] = test system: p-STAT5; assay: flow cytometry of p-STAT5 in TPO-stimulated CD34+ cells from MF patients on chronic ruxolitinib (Example 8); assay type: cell-based, human; settings: 2 h, then TPO 50 ng/mL, one value per patient, TPO vehicle = 100
Experimental: In this study, PBMCs were isolated from the whole blood from five MF patients receiving chronic ruxolitinib treatment (rux 1-rux 5). The cells were treated with either vehicle, ruxolitinib, and/or Compound B for 2 hours then stimulated with TPO (50 ng/mL) for 10 minutes. Ruxolitinib at the dose of 1 or 20 nM and Compound B at the dose of 45, 200, or 700 nM were used.
The treated cells were then fixed, permeabilized and stained for FACS analysis using FACSCalibur analyzed using BD FACSDiva software.

Structure (SMILES): CC[C@H](Nc1ncnc2[nH]cnc12)c1nc2cccc(F)c2c(=O)n1-c1ccccc1 [Compound B, (S)-2-(1-((9H-purin-6-yl)amino)propyl)-5-fluoro-3-phenylquinazolin-4(3H)-one]
- viability at […] ([1]; IL6 0 ng/mL): 72%
- viability at […] ([1]; IL6 3 ng/mL): 95%
- viability at 0.2 µM ([1]; IL6 0 ng/mL): 63%
- viability at 0.2 µM ([1]; IL6 3 ng/mL): 91%
- viability at 0.421 µM ([1]; IL6 0 ng/mL): 54%
- viability at 0.421 µM ([1]; IL6 3 ng/mL): 83%
- normalized percentage of TPO-activated AKT phosphorylation (p-AKT) ([2]; then TPO, progenitor cells of rux-treated MF patients, one value per patient, TPO-treated vehicle = 100): 40% and 29% and 35% and 16% (2×)
- normalized percentage of p-AKT ([2]; progenitor cells from Compound A-treated MF patients, one value per subject, column 0 = 100): 24% and 55% and 30%
- reduced p-S6 levels ([3]; 0.1 μM): 24%
- reduced p-S6 levels ([3]; 1.0 μM): 27%
- reduced p-S6 levels ([3]; 2.0 μM): 41%
- percentage of the p-STAT5 levels ([4]; Compound B 45 nM): 92% (2×) and 85% and 95% and 83%
- percentage of the p-STAT5 levels ([4]; Compound B 200 nM): 93% and 83% and 91% and 72% and 90%
- percentage of the p-STAT5 levels ([4]; Compound B 700 nM): 88% and 86% and 82% and 106% and 78%
